Molecular target: NLRP3 (Homo sapiens, UniProt Q96P20)
Test: Human whole blood (hWB) NLRP3 Assay
Description: Heparin lithium coated tubes were used to collect blood from volunteers. Blood samples were distributed on 96 well plates using 90 μl per well. […] Human whole blood was drawn from healthy volunteers after obtaining written informed consent.

Sequence of NLRP3 (Q96P20 whole entry): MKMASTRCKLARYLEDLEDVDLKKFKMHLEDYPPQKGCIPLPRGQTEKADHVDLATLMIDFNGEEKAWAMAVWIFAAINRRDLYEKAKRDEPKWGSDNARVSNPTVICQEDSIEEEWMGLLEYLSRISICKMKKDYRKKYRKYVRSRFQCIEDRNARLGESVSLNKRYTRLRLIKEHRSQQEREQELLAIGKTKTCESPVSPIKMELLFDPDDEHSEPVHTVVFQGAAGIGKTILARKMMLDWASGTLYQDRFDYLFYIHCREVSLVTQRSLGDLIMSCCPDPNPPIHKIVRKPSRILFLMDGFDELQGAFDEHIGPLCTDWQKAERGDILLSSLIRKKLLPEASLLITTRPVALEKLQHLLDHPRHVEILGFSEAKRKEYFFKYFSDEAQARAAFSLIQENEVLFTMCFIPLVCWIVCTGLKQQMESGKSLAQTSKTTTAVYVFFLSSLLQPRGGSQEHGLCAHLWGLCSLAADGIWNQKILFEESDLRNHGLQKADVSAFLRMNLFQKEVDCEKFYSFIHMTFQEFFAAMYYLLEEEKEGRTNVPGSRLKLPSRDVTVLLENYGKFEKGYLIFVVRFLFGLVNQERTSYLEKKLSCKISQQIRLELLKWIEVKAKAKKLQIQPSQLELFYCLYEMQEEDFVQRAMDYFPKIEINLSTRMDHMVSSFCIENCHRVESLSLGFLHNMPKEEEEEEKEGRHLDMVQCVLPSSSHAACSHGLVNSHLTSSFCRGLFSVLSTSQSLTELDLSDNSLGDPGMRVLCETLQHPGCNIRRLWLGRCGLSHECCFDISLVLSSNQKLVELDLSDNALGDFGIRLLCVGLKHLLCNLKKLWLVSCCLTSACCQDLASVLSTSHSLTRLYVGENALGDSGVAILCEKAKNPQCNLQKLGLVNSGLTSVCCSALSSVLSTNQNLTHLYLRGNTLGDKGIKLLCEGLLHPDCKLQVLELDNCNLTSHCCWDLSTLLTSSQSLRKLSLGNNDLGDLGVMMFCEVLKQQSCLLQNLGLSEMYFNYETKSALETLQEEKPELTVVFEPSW

IC50: 42 µM
SMILES: Clc1ccc(-c2nnc(NCC3CCCO3)c3ccncc23)cc1 (stereo not shown)
